# In US6090787A, “Antithrombotic agents” (Eli Lilly and Company, priority 1999, dated 2000):
# Square brackets hold non-standard residues; d marks the D form. Peptide text beside a SMILES is read from it. dPip = O=C(O)[C@H]1CCCCN1; Sar = CNCC(=O)O
# Experiments:
# Human plasmin = target: T1, Human plasmin (Homo sapiens, UniProt P00747); assay: Fibrinolytic protease selectivity, Kass, plasmin chromogenic assay; assay type: biochemical; details: apparent association constant
# T1 construct: Human plasmin is purchased from Boehringer Mannheim; purchased Boehringer Mannheim, Indianapolis, Indiana
# Description: (§1) By substantially following the procedures described above for human thrombin, and using other human blood coagulation system serine proteases and proteases of the fibrinolytic system with the appropriate chromogenic substrates, identified below, selectivity of the compounds of the present invention with respect to the coagulation factor serine proteases and with respect to the fibrinolytic system serine proteases are evaluated as well as their substantial lack of interference with serine proteases of the fibrinolytic system. Thrombin inhibitors preferably should spare fibrinolysis induced by urokinase, tissue plasminogen activator (t-PA) and streptokinase. This would be important to the therapeutic use of such agents as an adjunct to streptokinase, t-PA or urokinase thrombolytic therapy and to the use of such agents as an endogenous fibrinolysis-sparing (with respect to t-PA and urokinase) antithrombotic agent. In addition to the lack of interference with the amidase activity of the fibrinolytic proteases, such fibrinolytic system sparing can be studied by the use of human plasma clots and their lysis by the respective fibrinolytic plasminogen activators.
# (§2) Human plasmin is purchased from Boehringer Mannheim, Indianapolis, Indiana; nt-PA is purchased as single chain activity reference from American Diagnostica, Greenwich, Conn.; modified-t-PA6 (mt-PA6) is prepared at Eli Lilly and Company by procedure known in the art (See, Burck, et al., J. Biol. Chem., 265, […] (1990). Plasmin chromogenic substrate H--D--Val--Leu--Lys--p--nitroanilide and tissue plasminogen activator (t-PA) substrate H--D--Ile--Pro--Arg--p--nitroanilide are purchased from Kabi Vitrum, Stockholm, Sweden.
# Bovine trypsin = target: T2, Bovine trypsin (Bos taurus, UniProt P00760); assay: Serine protease selectivity, Kass, trypsin chromogenic assay; assay type: biochemical; details: apparent association constant
# T2 construct: purchased Worthington Biochemicals, Freehold, N.J
# T2 sequence (P00760 24-246): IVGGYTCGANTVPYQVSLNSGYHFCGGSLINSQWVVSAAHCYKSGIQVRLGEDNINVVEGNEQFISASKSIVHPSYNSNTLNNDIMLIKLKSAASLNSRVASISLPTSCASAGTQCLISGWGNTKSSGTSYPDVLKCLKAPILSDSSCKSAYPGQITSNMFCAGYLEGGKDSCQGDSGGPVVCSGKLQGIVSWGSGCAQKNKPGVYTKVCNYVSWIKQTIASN
# Description: as §1
# Human factors X, Xa, IXa, XIa, and XIIa are purchased from Enzyme Research Laboratories, South Bend, Ind.; human urokinase from Leo Pharmaceuticals, Denmark; and recombinant activated Protein C (aPC) is prepared at Eli Lilly and Co. substantially according to U.S. Pat. No. 4,981,952 incorporated by reference herein in its entirety. Chromogenic substrates: N--Benzoyl--Ile--Glu--Gly--Arg--p--nitroanilide (for factor Xa); N--Cbz--D--Arg--Gly--Arg--p--nitroanilide (for factor IXa assay as the factor Xa substrate); Pyroglutamyl--Pro--Arg--p--nitroanilide (for Factor XIa and for aPC); H--D--Pro--Phe--Arg--p--nitroanilide (for factor XIIa); and Pyroglutamyl--Gly--Arg--p--nitroanilide (for urokinase); are purchased from KabiVitrum, Stockholm, Sweden, or from Midwest Biotech, Fishers, Indiana. Bovine trypsin is purchased from Worthington Biochemicals, Freehold, N.J., and human plasma kallikrein from Kabi Vitrum, Stockholm, Sweden. Chromogenic substrate H--D--Pro--Phe--Arg--p--nitroanilide for plasma kallikrein is purchased from Kabi Vitrum, Stockholm, Sweden. N--Benzoyl--Phe--Val--Arg--p--nitroanilide, the substrate for human thrombin and for trypsin, is synthesized according to procedures described above for the compounds of the present invention, using known methods of peptide coupling from commercially available reactants or purchased from Midwest Biotech, Fishers, Ind.
# human plasma [1] = assay: Human plasma anticoagulation, prothrombin time (PT); details: concentration required to double the PT, linear extrapolation
# Description: (§3) Dog plasma and rat plasma is obtained from conscious mixed-breed hounds (either sex, Hazelton-LRE, Kalamazoo, Mich., U.S.A.) or from anesthetized male Sprague-Dawley rats (Harlan Sprague-Dawley, Inc., Indianapolis, Ind., U.S.A.) by venipuncture into 3.8 percent citrate. Fibrinogen is prepared from in-date ACD human blood as the fraction I-2 according to previous procedures and specifications. Smith, Biochem. J., 185, 1-11 (1980); and Smith, et al., Biochemistry, 11, 2958-2967 (1972). Human fibrinogen is also purchased as 98 percent pure/plasmin free from American Diagnostica, Greenwich, Conn. Coagulation reagents ACTIN, Thromboplastin, and Human plasma are from Baxter Healthcare Corp., Dade Division, Miami, Fla. Bovine thrombin from Parke-Davis ([…], Mich.) is used for coagulation assays in plasma.
# (§4) Coagulation assay procedures are as previously described. Smith, et al., Thrombosis Research, 50, 163-174 (1988). A CoAScreener coagulation instrument (American LABor, Inc.) is used for all coagulation assay measurements. The prothrombin time (PT) is measured by adding 0.05 mL saline and 0.05 mL Thromboplastin-C reagent to 0.05 mL test plasma. The activated partial thromboplastin time (APTT) is measured by incubation of 0.05 mL test plasma with 0.05 mL Actin reagent for 120 seconds followed by 0.05 mL CaCl2 (0.02 M). The thrombin time (TT) is measured by adding 0.05 mL saline and 0.05 mL thrombin (10 NIH units/mL) to 0.05 mL test plasma. The compounds of formula I are added to human or animal plasma over a wide range of concentrations to determine prolongation effects on the APTT, PT, and TT assays. Linear extrapolations are performed to estimate the concentrations required to double the clotting time for each assay.
# human plasma [2] = assay: Human plasma anticoagulation, activated partial thromboplastin time (APTT); details: concentration required to double the APTT, linear extrapolation
# Description: as §3, §4
# [3] = target: T3, tissue plasminogen activator (t-PA) (Homo sapiens, UniProt P00750); assay: Fibrinolytic protease selectivity, Kass, t-PA chromogenic assay; assay type: biochemical; details: apparent association constant
# T3 construct: purchased American Diagnostica, Greenwich, Conn
# Description: as §1, §2
# human plasma [4] = assay: Human plasma anticoagulation, thrombin time (TT); details: concentration required to double the thrombin time, linear extrapolation
# Description: as §3, §4
# T3 sequence (P00750 36-562): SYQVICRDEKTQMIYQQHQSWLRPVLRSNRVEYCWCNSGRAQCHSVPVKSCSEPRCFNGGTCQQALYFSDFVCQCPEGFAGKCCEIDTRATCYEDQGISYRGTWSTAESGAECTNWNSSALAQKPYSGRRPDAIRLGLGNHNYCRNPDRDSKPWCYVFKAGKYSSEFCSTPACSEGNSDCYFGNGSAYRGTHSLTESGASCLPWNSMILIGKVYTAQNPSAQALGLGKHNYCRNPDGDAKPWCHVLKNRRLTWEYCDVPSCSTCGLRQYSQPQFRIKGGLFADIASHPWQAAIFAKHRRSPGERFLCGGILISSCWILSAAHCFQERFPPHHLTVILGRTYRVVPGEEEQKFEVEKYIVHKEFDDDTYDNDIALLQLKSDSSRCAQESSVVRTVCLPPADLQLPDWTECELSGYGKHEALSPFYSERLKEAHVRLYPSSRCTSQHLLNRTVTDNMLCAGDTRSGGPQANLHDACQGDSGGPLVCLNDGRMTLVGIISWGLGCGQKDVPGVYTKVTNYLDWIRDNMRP
# T1 sequence (P00747 581-810 limits assumed): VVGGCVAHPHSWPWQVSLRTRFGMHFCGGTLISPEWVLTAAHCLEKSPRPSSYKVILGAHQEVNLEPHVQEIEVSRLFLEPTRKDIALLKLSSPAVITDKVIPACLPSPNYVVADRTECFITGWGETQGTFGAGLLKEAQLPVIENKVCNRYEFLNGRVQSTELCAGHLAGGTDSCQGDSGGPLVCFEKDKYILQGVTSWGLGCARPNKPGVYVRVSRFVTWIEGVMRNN
# T1 sequence (P00747 97-580 partner limits assumed): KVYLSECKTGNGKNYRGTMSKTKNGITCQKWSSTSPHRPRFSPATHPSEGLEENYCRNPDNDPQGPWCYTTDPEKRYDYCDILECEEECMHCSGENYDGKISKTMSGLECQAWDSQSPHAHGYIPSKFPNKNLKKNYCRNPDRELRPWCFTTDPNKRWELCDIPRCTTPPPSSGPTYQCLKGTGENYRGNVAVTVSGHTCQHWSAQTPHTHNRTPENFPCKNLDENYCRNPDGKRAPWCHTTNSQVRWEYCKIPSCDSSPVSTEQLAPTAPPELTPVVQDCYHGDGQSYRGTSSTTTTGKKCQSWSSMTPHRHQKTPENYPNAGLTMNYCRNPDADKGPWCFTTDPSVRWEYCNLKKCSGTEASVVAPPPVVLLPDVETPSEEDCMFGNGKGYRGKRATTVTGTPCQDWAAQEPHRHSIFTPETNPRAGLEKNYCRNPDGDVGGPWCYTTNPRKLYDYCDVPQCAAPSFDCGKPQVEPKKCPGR
SMILES,Enzyme Kass Plasmin (Human plasmin) [L/mol × 10^6],Enzyme Kass Trypsin (Bovine trypsin) [L/mol × 10^6],Human Plasma Anticoagulation 2 × Clotting time PT (human plasma [1]),Human Plasma Anticoagulation 2 × Clotting time APTT (human plasma [2]),Enzyme Kass t-PA [3] [L/mol × 10^6],Human Plasma Anticoagulation 2 × Clotting time TT (human plasma [4]) [ng/mL]
"CN(CC(=O)N[C@H](C=O)CCCNC(=N)N)C(=O)[C@H]1CCCCN1.Cl.Cl [Example 1, D-homoprolyl-N-methylglycyl-L-argininal dihydrochloride] (H-[dPip]-[Sar]-Arg-aldehyde)",0.031,0.88,"4,800 ng/mL","2,800 ng/mL",0.0039,160
"CC(C)CCN(CC(=O)N[C@H](C=O)CCCN=C(N)N)C(=O)[C@H]1CCCCN1.Cl.Cl [Example 6, D--hPro--N(isoamyl)Gly--ArgH.2HCl]",0.059,5.9,"2,600 ng/mL","3,200 ng/mL",0.004,170
"Cl.Cl.N=C(N)NCCC[C@@H](C=O)NC(=O)CN(CCc1ccccc1)C(=O)[C@H]1CCCCN1 [Example 8, D-homoprolyl-N-(2-phenylethyl)glycyl-L-argininal dihydrochloride]",0.44,2.7,"2,000 ng/mL","6,600 ng/mL",0.009,64
